Assay results from ChEMBL document CHEMBL5725219, “Compounds and methods for skin repair” (2017).
pEC50, pKi: −log10 of the molar value.

What was measured:
[1] = molecular target: Prostaglandin E2 receptor EP2 subtype (Homo sapiens, UniProt P43116); assay: (§1) FLIPR Assay: Cells were seeded at a density of 5×10^4 cells per well in Biocoat® Poly-D-lysine-coated black-wall, clear-bottom 96-well plates (Becton-Dickinson) and allowed to attach overnight in an incubator at 37° C. Cells were then washed two times with HBSS-HEPES buffer (Hanks Balanced Salt Solution without bicarbonate and phenol red, 20 mM HEPES, pH 7.4) using a Denley Cellwash plate washer (Labsystems). After 45 minutes of dye-loading in the dark, using the calcium-sensitive dye Fluo-4 AM at a final concentration of […], plates were washed four times with HBSS-HEPES buffer to remove excess dye leaving […] in each well. Plates were re-equilibrated to 37° C. for a few minutes.Cells were excited with an Argon laser at 488 nm, and emission was measured through a 510-570 nm bandwidth emission filter (FLIPR™, Molecular Devices, Sunnyvale, Calif.). Drug solution was added in a 50 μl volume to each well to give the desired final concentration. The peak increase in fluorescence intensity was recorded for each well. On each plate, four wells each served as negative (HBSS-HEPES buffer) and positive controls (standard agonists: BW245C (hDP); PGE2 (hEP1; hEP2/Gqs5; hEP3A/Gqi5; hEP4/Gqs5); PGF2a (hFP); carbacyclin (hIP); U-46619 (hTP), depending on receptor). The peak fluorescence change in each drug-containing well was then expressed relative to the controls.
Chain of Prostaglandin E2 receptor EP2 subtype (P43116 whole entry): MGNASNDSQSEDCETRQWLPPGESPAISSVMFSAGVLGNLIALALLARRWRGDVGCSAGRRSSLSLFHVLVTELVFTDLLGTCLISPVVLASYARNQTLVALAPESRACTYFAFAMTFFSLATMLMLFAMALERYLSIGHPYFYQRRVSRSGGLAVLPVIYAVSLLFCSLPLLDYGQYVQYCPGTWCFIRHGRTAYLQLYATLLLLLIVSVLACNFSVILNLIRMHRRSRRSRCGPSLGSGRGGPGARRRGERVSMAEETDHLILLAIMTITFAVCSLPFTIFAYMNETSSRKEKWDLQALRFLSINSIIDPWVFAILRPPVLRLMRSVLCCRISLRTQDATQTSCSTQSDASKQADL

[2] = molecular target: T1, Prostaglandin E2 receptor EP4 subtype (Homo sapiens, UniProt P35408); assay: as §1
T1 sequence (P35408 whole entry): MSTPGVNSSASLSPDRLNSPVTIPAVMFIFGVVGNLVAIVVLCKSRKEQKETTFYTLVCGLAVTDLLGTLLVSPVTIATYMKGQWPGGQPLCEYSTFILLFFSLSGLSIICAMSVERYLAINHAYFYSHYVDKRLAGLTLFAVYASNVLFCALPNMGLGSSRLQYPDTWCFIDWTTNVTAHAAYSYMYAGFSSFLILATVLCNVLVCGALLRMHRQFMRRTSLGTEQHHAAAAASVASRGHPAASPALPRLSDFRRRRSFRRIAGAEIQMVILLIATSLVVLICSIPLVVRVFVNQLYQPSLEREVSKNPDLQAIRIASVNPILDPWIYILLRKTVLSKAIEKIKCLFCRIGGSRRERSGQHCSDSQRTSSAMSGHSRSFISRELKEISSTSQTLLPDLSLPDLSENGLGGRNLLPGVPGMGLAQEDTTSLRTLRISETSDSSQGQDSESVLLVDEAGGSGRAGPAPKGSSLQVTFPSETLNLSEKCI

[3] = molecular target: T1, Prostaglandin E2 receptor EP4 subtype; assay: Radioligand Binding Assay: HEK-293 cells stably expressing the human or feline FP receptor, or EP1, EP2, or EP4 receptors were washed with TME buffer, scraped from the bottom of the flasks, and homogenized for 30 sec using a Brinkman PT 10/35 polytron. TME buffer was added to achieve a final 40 ml volume in the centrifuge tubes (the composition of TME is 100 mM TRIS base, 20 mM MgCl2, […]; 10N HCl is added to achieve a pH of 7.4).The cell homogenate was centrifuged at 19000 r.p.m. for 20 min at 4° C. using a Beckman Ti-60 rotor. The resultant pellet was resuspended in TME buffer to give a final 1 mg/ml protein concentration, as determined by Biorad assay. Radioligand binding competition assays vs. [3H-]17-phenyl PGF2a (5 nM) were performed in a 100 μl volume for 60 min. Binding reactions were started by adding plasma membrane fraction. The reaction was terminated by the addition of 4 ml ice-cold TRIS-HCl buffer and rapid filtration through glass fiber GF/B filters using a Brandel cell harvester. The filters were washed 3 times with ice-cold buffer and oven dried for one hour.[3H] PGE2 (specific activity 180 Ci mmol) was used as the radioligand for EP receptors. [3H] 17-phenyl PGF2a was employed for FP receptor binding studies. Binding studies employing EP1, EP2, EP4 and FP receptors were performed in duplicate in at least three separate experiments. A 200 μl assay volume was used. […]

pEC50 [1] | pKi [1] | pKi [2] | pEC50 [2] | pKi [3] | SMILES
6.74 | 6.09 | 5.31 | – | – | COc1cc(OC)cc(C(=O)N2CCc3cccc(CCc4ccc(C(=O)O)cc4)c32)c1
– | 7.85 | 8.70 | 8.70 | – | COc1cc(CN2CCc3cc(F)cc(CCc4ccc(C(=O)O)cc4)c32)cc(OC)c1
– | 7.64 | 6.91 | 6.75 | – | COc1cccc(CN2CCc3cccc(CCc4ccc(C(=O)O)cc4)c32)c1
– | 6.69 | 5.96 | 5.80 | – | O=C(O)c1ccc(CCc2cccc3c2N(CCc2ccccc2)CC3)cc1
– | 7.39 | 6.43 | 5.90 | – | COc1cccc(CCN2CCc3cccc(CCc4ccc(C(=O)O)cc4)c32)c1
– | 5.16 | 5.02 | < 5.00 | – | COc1cccc(CN2Cc3cccc(CCc4ccc(C(=O)O)cc4)c3C2)c1
– | – | – | < 5.00 | – | COc1cc(CO)cc(S(=O)(=O)N2CCc3cccc(CCc4ccc(C(=O)O)cc4)c32)c1
– | 6.59 | 5.77 | 5.79 | – | COc1cccc(Cn2ccc3cccc(CCc4ccc(C(=O)O)cc4)c32)c1
7.54 | 7.85 | 6.21 | 6.35 | – | O=C(O)c1ccc(CCc2cccc3c2N(Cc2ccc(F)cc2)CC3)cc1
7.92 | 7.92 | 6.39 | 6.69 | – | O=C(O)c1ccc(CCc2cccc3c2N(Cc2cc(F)cc(F)c2)CC3)cc1
7.96 | 9.52 | 5.92 | – | – | O=C(O)c1ccc(CCc2cccc3c2N(Cc2cc(C(F)(F)F)cc(C(F)(F)F)c2)CC3)cc1
– | 7.30 | 6.15 | – | – | COc1cccc(CN2CCc3cccc(CCc4ccc(C(=O)O)s4)c32)c1
– | < 5.00 | 6.35 | < 5.00 | – | COc1cccc(CC(=O)N2CCc3cccc(CCc4ccc(C(=O)O)cc4)c32)c1
7.82 | 8.15 | 6.37 | 6.73 | – | O=C(O)c1ccc(CCc2cccc3c2N(Cc2cccc(C(F)(F)F)c2)CC3)cc1
– | – | – | – | 6.81 | COc1cc(CO)cc(CN2CCc3cccc(CCc4ccc(C(=O)O)s4)c32)c1

SMILES | pEC50 [1] | pKi [1] | pKi [2] | pEC50 [2] | pKi [3]
COc1cccc(S(=O)(=O)N2CCc3cccc(CCc4ccc(C(=O)O)cc4)c32)c1 | – | 6.24 | < 5.00 | < 5.00 | –
O=C(O)c1ccc(CCc2cccc3c2N(Cc2cccc(F)c2)CC3)cc1 | 7.46 | 7.42 | 6.05 | 6.91 | –
COc1cc(OC)cc(N2Cc3cccc(CCc4ccc(C(=O)O)cc4)c3C2)c1 | – | – | 5.41 | – | –
COc1cccc(CCN2Cc3cccc(CCc4ccc(C(=O)O)cc4)c3C2)c1 | – | 5.95 | < 5.00 | < 5.00 | –
